Experimental data published in the supplement of paper PMC8671470.

Key:
Conditions in all cases: 72 h
BV-173 [1] = test: cell viability (% survival relative to DMSO control, bortezomib = 0%); higher = less cytotoxic
In short: (§1)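 Percent survival is reported as the mean of duplicate wells. Cells from 10 AML and 5 CML lines were plated in 384-well plates containing compounds at 1, 10, 100, 1000 or 10000 nM and kept for 72 h at 37 °C in 5% CO2. Readout used CellTiter-Glo luminescence, scaled so that vehicle equals 100% and a 10 µM positive control equals 0%.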

NOMO-1 [2] = test: as above
In short: as §1

KG-1 [3] = test: as above
In short: as §1

KU-812 [4] = test: as above
In short: as §1

LAMA-84 [5] = test: as above
In short: as §1

HEL [6] = test: as above
In short: as §1

SHI-1 [7] = test: as above
In short: as §1

K-562 [8] = test: as above
In short: as §1

MOLM-13 [9] = test: as above
In short: as §1

KCL-22 [10] = test: as above
In short: as §1

THP-1 [11] = test: as above
In short: as §1

HL-60 [12] = test: as above
In short: as §1

ML-2 [13] = test: as above
In short: as §1

MV4-11 [14] = test: as above
In short: as §1

Mono-Mac-6 [15] = test: as above
In short: as §1

BV-173 [16] = tested on: BV-173
In short: (§2)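 Fifteen myeloid leukaemia lines in RPMI 1640 were treated for 72 h at 37 °C and 5% CO2 with five tenfold doses from 1 to 10,000 nM, in duplicate. ATP luminescence was normalised to vehicle and to a positive control at 10 µM, then fitted with a four-parameter log-logistic model. The IC50 came from these fits.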

NOMO-1 [17] = tested on: NOMO-1
In short: as §2

KG-1 [18] = tested on: KG-1
In short: as §2

KU-812 [19] = tested on: KU-812
In short: as §2

LAMA-84 [20] = tested on: LAMA-84
In short: as §2

HEL [21] = tested on: HEL
In short: as §2

SHI-1 [22] = tested on: SHI-1
In short: as §2

K-562 [23] = tested on: K-562
In short: as §2

MOLM-13 [24] = tested on: MOLM-13
In short: as §2

KCL-22 [25] = tested on: KCL-22
In short: as §2

THP-1 [26] = tested on: THP-1
In short: as §2

HL-60 [27] = tested on: HL-60
In short: as §2

ML-2 [28] = tested on: ML-2
In short: as §2

MV4-11 [29] = tested on: MV4-11
In short: as §2

Mono-Mac-6 [30] = tested on: Mono-Mac-6
In short: as §2

CCN(CC)C(=S)SSC(=S)N(CC)CC [Disulfiram]
cell viability [%]
Conditions	1 nM	10 nM	100 nM	1000 nM	10000 nM
BV-173 [1]	96	103	97.6	37.5	-0.175
HEL [6]	101	86.8	96.6	87.9	68
HL-60 [12]	100	104	89.2	83.3	93.7
K-562 [8]	90.2	99.1	89.8	29.7	70.9
KCL-22 [10]	72.4	92.3	94.4	61.3	62.7
KG-1 [3]	92.7	89.8	92.7	2.8	22
KU-812 [4]	99.7	99.3	97	66	66.9
LAMA-84 [5]	93.5	94.5	94.4	90.8	67.7
ML-2 [13]	92	106	91.4	6.36	11.6
MOLM-13 [9]	94.1	76.7	93.3	98.2	92.7
MV4-11 [14]	94.1	114	98.3	88.7	53.5
Mono-Mac-6 [15]	91.9	100	67.9	25.5	62.5
NOMO-1 [2]	95.3	99.4	101	92	88.9
SHI-1 [7]	87.7	92.8	44.8	-0.354	65.1
THP-1 [11]	94.5	95.6	48.1	30.5	57.4

Conditions	IC50 (cell viability) [µM]
BV-173 [16]	0.778
HEL [21]	> 10
HL-60 [27]	> 10
K-562 [23]	0.447
KCL-22 [25]	> 10
KG-1 [18]	0.272
KU-812 [19]	> 10
LAMA-84 [20]	> 10
ML-2 [28]	0.264
MOLM-13 [24]	> 10
MV4-11 [29]	7.02
Mono-Mac-6 [30]	0.171
NOMO-1 [17]	> 10
SHI-1 [22]	0.0728
THP-1 [26]	0.0708

Cc1cccc(Nc2cc(Cl)nc(SCC(=O)O)n2)c1C [Pirinixic acid]
cell viability [%]
Conditions	1 nM	10 nM	100 nM	1000 nM	10000 nM
BV-173 [1]	106	90.6	104	92.1	93.5
HEL [6]	84	100	109	104	101
HL-60 [12]	97.2	101	116	93.8	98.2
K-562 [8]	99.8	92.3	102	94.5	90.7
KCL-22 [10]	86.5	92.5	100	106	101
KG-1 [3]	99	93.1	101	98.8	107
KU-812 [4]	97.2	97.6	102	96.4	97.3
LAMA-84 [5]	100	97.7	99	94.5	95
ML-2 [13]	103	103	105	105	102
MOLM-13 [9]	106	102	87.1	111	84.6
MV4-11 [14]	94.5	90.7	102	99.3	99.8
Mono-Mac-6 [15]	105	106	98.4	99.2	91.4
NOMO-1 [2]	106	102	102	90.5	96.8
SHI-1 [7]	98.5	97	91.8	94.4	82.8
THP-1 [11]	105	97.1	101	99.5	102

Conditions	IC50 (cell viability) [µM]
BV-173 [16]	> 10
HEL [21]	> 10
HL-60 [27]	> 10
K-562 [23]	> 10
KCL-22 [25]	> 10
KG-1 [18]	> 10
KU-812 [19]	> 10
LAMA-84 [20]	> 10
ML-2 [28]	> 10
MOLM-13 [24]	> 10
MV4-11 [29]	> 10
Mono-Mac-6 [30]	> 10
NOMO-1 [17]	> 10
SHI-1 [22]	> 10
THP-1 [26]	> 10

CCn1c(=Cc2cccc[n+]2CC)sc(=C2Sc3ccccc3N2C)c1=O [MKT 077]
cell viability [%]
Conditions	1 nM	10 nM	100 nM	1000 nM	10000 nM
BV-173 [1]	107	108	102	95.2	83.4
HEL [6]	117	87	95.7	105	125
HL-60 [12]	101	84.5	101	136	2.97
K-562 [8]	109	88.1	103	108	1.35
KCL-22 [10]	106	98.5	90	103	107
KG-1 [3]	99	103	138	102	79.3
KU-812 [4]	101	103	107	98.3	61.8
LAMA-84 [5]	105	94.7	114	104	71.6
ML-2 [13]	91.7	98	106	102	101
MOLM-13 [9]	115	108	119	115	0.148
MV4-11 [14]	113	99.9	109	104	0.22
Mono-Mac-6 [15]	100	110	112	102	87.8
NOMO-1 [2]	98	96.2	98.1	94	95.2
SHI-1 [7]	95.9	98.7	97.3	98.8	2.85
THP-1 [11]	99.6	105	108	98.2	86.1

Conditions	IC50 (cell viability) [µM]
BV-173 [16]	> 10
HEL [21]	> 10
HL-60 [27]	4.45
K-562 [23]	3.59
KCL-22 [25]	> 10
KG-1 [18]	> 10
KU-812 [19]	> 10
LAMA-84 [20]	> 10
ML-2 [28]	> 10
MOLM-13 [24]	3.76
MV4-11 [29]	3.37
Mono-Mac-6 [30]	> 10
NOMO-1 [17]	> 10
SHI-1 [22]	3.28
THP-1 [26]	> 10

O=c1cc(-c2ccccc2)oc2c1ccc1ccccc12 [Alpha-Naphtoflavone]
cell viability [%]
Conditions	1 nM	10 nM	100 nM	1000 nM	10000 nM
BV-173 [1]	105	92.1	105	111	108
HEL [6]	96.1	95.6	102	96.4	102
HL-60 [12]	118	83.8	95.6	104	103
K-562 [8]	95.8	101	109	90.2	108
KCL-22 [10]	107	98.1	97.7	85.8	84.8
KG-1 [3]	114	89.4	95.1	90.9	74.7
KU-812 [4]	98.8	99.3	96.3	96	89.9
LAMA-84 [5]	103	95.9	103	93.5	94.4
ML-2 [13]	101	102	93.4	83.4	82.3
MOLM-13 [9]	115	93.5	96.2	80.9	90.1
MV4-11 [14]	106	109	107	89.6	97.1
Mono-Mac-6 [15]	92.7	90.3	93.6	111	113
NOMO-1 [2]	99.7	94.3	108	95.6	95.2
SHI-1 [7]	113	99.2	97.7	95.8	96.8
THP-1 [11]	98.3	99.6	102	102	101

Conditions	IC50 (cell viability) [µM]
BV-173 [16]	> 10
HEL [21]	> 10
HL-60 [27]	> 10
K-562 [23]	> 10
KCL-22 [25]	> 10
KG-1 [18]	> 10
KU-812 [19]	> 10
LAMA-84 [20]	> 10
ML-2 [28]	> 10
MOLM-13 [24]	> 10
MV4-11 [29]	> 10
Mono-Mac-6 [30]	> 10
NOMO-1 [17]	> 10
SHI-1 [22]	> 10
THP-1 [26]	> 10

C[C@H]1c2cccc(O)c2C(=O)C2C(=O)[C@]3(O)C(=O)C(C(N)=O)C(=O)[C@@H](N(C)C)[C@@H]3[C@@H](O)[C@@H]21 (stereo not given in full) [Doxycycline]
cell viability [%]
Conditions	1 nM	10 nM	100 nM	1000 nM	10000 nM
BV-173 [1]	107	87.9	99.2	102	69.7
HEL [6]	120	107	90.5	108	75.3
HL-60 [12]	123	100	118	111	67.4
K-562 [8]	112	97	97.3	101	46.2
KCL-22 [10]	130	69.3	93.6	109	41.6
KG-1 [3]	106	91.7	95.9	95.1	87.9
KU-812 [4]	111	88.3	105	102	74.4
LAMA-84 [5]	101	95.3	106	92	66.1
ML-2 [13]	111	103	97.9	90	45.9
MOLM-13 [9]	124	114	92.7	104	74.5
MV4-11 [14]	110	105	94.2	97	50.9
Mono-Mac-6 [15]	103	98.6	109	94.7	90.4
NOMO-1 [2]	103	92	104	103	90.3
SHI-1 [7]	111	98	112	105	90.8
THP-1 [11]	95	95.9	100	105	106

Conditions	IC50 (cell viability) [µM]
BV-173 [16]	> 10
HEL [21]	> 10
HL-60 [27]	> 10
K-562 [23]	9.29
KCL-22 [25]	8.54
KG-1 [18]	> 10
KU-812 [19]	> 10
LAMA-84 [20]	> 10
ML-2 [28]	8.51
MOLM-13 [24]	> 10
MV4-11 [29]	> 10
Mono-Mac-6 [30]	> 10
NOMO-1 [17]	> 10
SHI-1 [22]	> 10
THP-1 [26]	> 10
